Data published in patent US20040048380A1, “Chimeric vectors and their use for heterologous genes transfer” (priority 2003, published 2004).

Key:
HeLa cells [1] = experiment: Phage micropanning, internalization (37° C.), with or without kinase inhibitors; assay type: cell-based; settings: Wortammannin 1 μM, ML-7 2 μM, FIG. 4
Excerpt: FIG. 4. Effect of the inhibitors of Wortammanin and ML-7 kinases on cell internalization. 10^12 particles of ΔPb phage (white bars) or of Pb phage (striped bars) are adsorbed on HeLa cells. The internalized phage is recovered and titrated. […] Data are shown as percentages of control enrichments carried out without inhibitors. Th results are average values of three different tests carried out in two series; SD (Standard Deviation) is also shown.
The micropanning on HeLa and CS-1 or CS-1/β3 cells was carried out […] at 4° C. and at 37° C. in order to quantify the bond and the internalization of chimeric phages, respectively. […] The eluates were titrated by ELISA on a plate coated with an anti-M13 antibody detected with anti-pVIII-HRP antibody, using as standard a phage stock with known titer.
Phage internalization was evaluated on cells which have been pre-incubated for 30′ at 37° C. with chlorokine 100 nM (Sigma) alone or together with an inhibitor of PI3K (phosphatidylinositol-3OH kinase), 1 μM Wortammannin (Sigma) or with an inhibitor of myosin light chain kinase ML-7 2 μM hydrochloride (Calbiochem, La Jolla, Calif.). […]
In short, the experiment was carried out as follows: 7.5×10^4 cells/well are plated and incubated with 10^12 chimeric phage particles. The results are expressed as enrichment factors with respect to control phages. […]

HeLa cells [2] = experiment: Transduction efficiency by GFP reporter gene expression (FACS); assay type: cell-based; settings: peptide 4.86 μM, molar excess of about 2000 times; FIG. 5b
Experimental: FIG. 5. Chimeric phages transduce eukaryotic cells in a receptor-dependent way. Cells are incubated for 1 hour at 4° C. and for 3 hours at 37° C. with 2×10^13 particles of Pb-GFP phage or ΔPb-GFP phage. After 72 hours said cells are analyzed with FACS. For competition tests they are pre-incubated with GRGDSP or GRGESP peptides (4.86 μM, corresponding to a molar excess of about 2000 times) for 1 hour at 4° C. and then incubated with chimeric phages. Data are analyzed with WinMDI2.8 software. 10^4 cells for each well are counted. a) White bars correspond to ΔPb-GFP phages; b) striped bars correspond to Pb-GFP b) phage.
The expression of GFP reporter gene (Green Fluorescent Protein) was carried out by FACS analysis as follows: 1×10^5 cells (HeLa, Cs-1/β3 or Cs-1) were plated in 6-portion wells. […] After the washings and 72 hours of incubation in fresh medium the expression levels of GFP protein were measured by FACS. The specificity of the measured signal was evaluated also in presence of GRGDSP or GRGESP peptides, pre-incubating the cells for 1 hour, with peptide concentration of 4.86 μM, corresponding to a molar excess of about 2000 times and maintaining said concentrations in the following incubations. 10^4 cells were measured for each sample. […]

Compound | effect of kinase inhibitor on internalization of Pb and ΔPb chimeric phages (HeLa cells [1]) | inhibition of the transduction of HeLa cells by ΔPb-GFP phage (HeLa cells [2])
O=S(=O)(c1cccc2c(I)cccc12)N1CCCNCC1 [ML-7] | not | –
COC[C@H]1OC(=O)c2coc3c2[C@@]1(C)C1=C(C3=O)[C@@H]2CCC(=O)[C@@]2(C)C[C@H]1OC(C)=O [Wortammannin] | inhibited | –
GRGDSP | – | up to 90%
GRGESP | – | not observed
